Laboratory results reported in patent US10101331B2, “Methods of evaluating patients using E-cadherin or vimentin” (AGIOS PHARMACEUTICALS, INC, priority 2012, dated 2018).

Experiments:
Assay in all cases: Lung cancer cell line panel screened for sensitivity to BPTES, 72 hr proliferation assay
Type in all cases: cell-based
NCI-H1563 = tested on: NCI-H1563
Description: (§1) Of these, 44 of the cell lines have been classified as non-small cell lung cancer (NSCLC). […] Four of the top 25 transcriptional/cellular pathways were related to the epithelial-mesenchymal transition (EMT) (ranks 1, 15, 23, 25 of FIG. 2). […] Low E-cadherin/high vimentin are well-defined markers of cells that have a mesenchymal phenotype as characterized for example, in any one of the following references: (Yauch et al., (2005) Cin Cancer Res 11:24; Savagner et al., (2010) Ann Oncol. 21(suppl 7): vii89; Thiery et al., (2002) Nature Reviews Cancer June vol 2:442).

NCI-H1770 = tested on: NCI-H1770
Description: as §1

NCI-H2122 = tested on: NCI-H2122
Description: as §1

NCI-H2107 = tested on: NCI-H2107
Description: as §1

A549 = tested on: A549
Description: as §1

NCI-H524 = tested on: NCI-H524
Description: as §1

NCI-H661 = tested on: NCI-H661
Description: as §1

NCI-H1623 = tested on: NCI-H1623
Description: as §1

NCI-H1618 = tested on: NCI-H1618
Description: as §1

NCI-H1373 = tested on: NCI-H1373
Description: as §1

NCI-H1568 = tested on: NCI-H1568
Description: as §1

H2228 = tested on: H2228
Description: as §1

CALU-6 = CALU-6 cell line
Description: as §1

NCI-H1651 = tested on: NCI-H1651
Description: as §1

SW-1573 = tested on: SW-1573
Description: as §1

NCI-H1355 = tested on: NCI-H1355
Description: as §1

NCI-H460 = tested on: NCI-H460
Description: as §1

NCI-H2405 = tested on: NCI-H2405
Description: as §1

NCI-H2030 = tested on: NCI-H2030
Description: as §1

NCI-H1666 = tested on: NCI-H1666
Description: as §1

NCI-H358 = tested on: NCI-H358
Description: as §1

COR-L23 = tested on: COR-L23
Description: as §1

COR-L279 = tested on: COR-L279
Description: as §1

NCI-H1048 = tested on: NCI-H1048
Description: as §1

NCI-H82 = tested on: NCI-H82
Description: as §1

NCI-H209 = tested on: NCI-H209
Description: as §1

NCI-H1299 = tested on: NCI-H1299
Description: as §1

NCI-H2171 = tested on: NCI-H2171
Description: as §1

A427 = tested on: A427
Description: as §1

NCI-H1975 = tested on: NCI-H1975
Description: as §1

NCI-H1993 = tested on: NCI-H1993
Description: as §1

NCI-H2081 = tested on: NCI-H2081
Description: as §1

NCI-H1734 = tested on: NCI-H1734
Description: as §1

NCI-H2170 = tested on: NCI-H2170
Description: as §1

NCI-H1092 = tested on: NCI-H1092
Description: as §1

NCI-H596 = tested on: NCI-H596
Description: as §1

## O=C(Cc1ccccc1)Nc1nnc(CCSCCc2nnc(NC(=O)Cc3ccccc3)s2)s1 [BPTES]
NCI-H1563; NCI-H1563, 10 uM
  Max Inh @ 10 uM (%): 8%
  Mu/max @10 uM: 0.92
  μ/μmax @10 uM: 0.92
NCI-H1563; NCI-H1563 cell line
  μ/μmax: 0.92
NCI-H1770
  μ/μmax: 0.56
NCI-H2122; NCI-H2122, 10 uM
  Max Inh @ 10 uM (%): 58%
  Mu/max @10 uM: 0.56
  μ/μmax @10 uM: 0.56
NCI-H2122; NCI-H2122 cell line
  μ/μmax: 0.56
NCI-H2107
  μ/μmax: 0.79
A549; A549, 10 uM
  Max Inh @ 10 uM (%): 73%
  Mu/max @10 uM: 0.53
  μ/μmax @10 uM: 0.53
A549; A549 cell line
  μ/μmax: 0.53
NCI-H524
  μ/μmax: 0.53
NCI-H661; NCI-H661, 10 uM
  Max Inh @ 10 uM (%): 73%
  Mu/max @10 uM: 0.43
  μ/μmax @10 uM: 0.43
NCI-H661; NCI-H661 cell line
  μ/μmax: 0.43
NCI-H1623
  μ/μmax: 0.79
NCI-H1618
  μ/μmax: 0.53
NCI-H1373
  μ/μmax: 0.79
NCI-H1568; NCI-H1568, 10 uM
  Max Inh @ 10 uM (%): 50%
  Mu/max @10 uM: 0.25
  μ/μmax @10 uM: 0.25
NCI-H1568; NCI-H1568 cell line
  μ/μmax: 0.25
H2228
  μ/μmax: 0.69
CALU-6
  μ/μmax: 0.82
NCI-H1651
  μ/μmax: 1.00
SW-1573; SW-1573, 10 uM
  Max Inh @ 10 uM (%): 68%
  Mu/max @10 uM: 0.12
  μ/μmax @10 uM: 0.12
SW-1573; SW-1573 cell line
  μ/μmax: 0.12
NCI-H1355
  μ/μmax: 0.78
NCI-H460; NCI-H460, 10 uM
  Max Inh @ 10 uM (%): 18%
  Mu/max @10 uM: 0.92
  μ/μmax @10 uM: 0.92
NCI-H460; NCI-H460 cell line
  μ/μmax: 0.92
NCI-H2405
  μ/μmax: 0.92
NCI-H2030; NCI-H2030, 10 uM
  Max Inh @ 10 uM (%): 87%
  Mu/max @10 uM: 0.37
  μ/μmax @10 uM: 0.37
NCI-H2030; NCI-H2030 cell line
  μ/μmax: 0.37
NCI-H1666
  μ/μmax: 1.00
NCI-H358; NCI-H358
  sensitivity to BPTES: relatively BPTES insensitive
NCI-H358; NCI-H358, 10 uM
  Max Inh @ 10 uM (%): 27%
  Mu/max @10 uM: 0.66
  μ/μmax @10 uM: 0.66
NCI-H358; NCI-H358 cell line
  μ/μmax: 0.66
COR-L23
  μ/μmax: 0.96
COR-L279
  μ/μmax: 0.88
NCI-H1048
  μ/μmax: 0.94
NCI-H82
  μ/μmax: 0.90
NCI-H209
  μ/μmax: 0.64
NCI-H1299
  μ/μmax: 0.49
NCI-H2171
  μ/μmax: 0.88
A427; A427, 10 uM
  Max Inh @ 10 uM (%): 86%
  Mu/max @10 uM: −0.49
  μ/μmax @10 uM: −0.49
A427; A427 cell line
  μ/μmax: −0.49
NCI-H1975; NCI-H1975, 10 uM
  Max Inh @ 10 uM (%): 18%
  Mu/max @10 uM: 0.75
  μ/μmax @10 uM: 0.75
NCI-H1975; NCI-H1975 cell line
  μ/μmax: 0.75
NCI-H1993
  μ/μmax: 0.89
NCI-H2081
  μ/μmax: 1.00
NCI-H1734
  μ/μmax: −0.12
NCI-H2170
  μ/μmax: 0.82
NCI-H1092
  μ/μmax: 0.77
NCI-H596; NCI-H596, 10 uM
  Max Inh @ 10 uM (%): 13%
  Mu/max @10 uM: 0.84
  μ/μmax @10 uM: 0.84
NCI-H596; NCI-H596 cell line
  μ/μmax: 0.84
